Experiment [1] deals with Leishmania amazonensis promastigotes. Put plainly: Mitochondria membrane potential (ΔΨm), Rh123 flow cytometry. The conditions noted are these: for Reduction in ΔΨm: lapachol 76.62 µg/mL, β-lapachone 1.63 µg/mL, H2O2 2 mM; for Variation Index (VI) of Rh123 fluorescence, (MT−MC)/MC: lapachol 76.62 μg/mL, β-lapachone 1.63 μg/mL, PC 2 mM. In kind it is cell-based. The protocol: The ΔΨm was determined using on BD FacsCalibur™ flow cytometer and CellQuest Pro software, with a total of 10.000 events acquired, using a mitochondrial-specific green-fluorescent dye Rh123 ([31]). Briefly, L. amazonensis (2×10^7 parasites/mL) were incubated with lapachol (76.62 µg/mL) and β-lapachone (1.63 µg/mL) for 1, 4, and 24 h at 25°C. After washed with PBS, the parasites were incubated with 5 μg/mL Rh123 for 15 min. After the incubation time, the cells were washed and suspended in PBS for additional incubation of 30 min for analysis. The percentage of fluorescence of Rh123, was determined by the (MT/MC)*100 equation, with MT representing the median fluorescence of the treated parasites and the MC the median fluorescence of negative controls. Alteration in ΔΨm was quantified using an index of variation (IV) obtained by the equation IV = (MT - MC)/MC, where negative IV values correspond to depolarization of the mitochondrial membrane. H2O2 (2 mM) was used as a positive control ([32]).
A general note: In flow cytometry, cells or beads pass a laser one at a time.

Experiment [2] has the same test system. Kind of experiment: Change in cell volume and morphology of the parasites (flow cytometry FSC-H/SSC-H, SEM). To be noted: 24 h; lapachol 76.62 µg/mL, β-lapachone 1.63 µg/mL, H2O2 2 mM; untreated 93.14%. The class given is cell-based. As for the experimental part: Promastigote forms (2×10^7 cells) of L. amazonensis untreated (negative control) or treated with 76.62 µg/mL of lapachol and 1.63 µg/mL of β-lapachone were analyzed to observe changes in cell morphology of the parasites induced by the treatment after 24 h of incubation. […] Subsequently, the parasites were analyzed using a BD FacsCalibur flow cytometer (Becton Dickinson, USA) and CellQuest Pro software (Joseph Trotter, Scripps Research Institute, USA), and 10,000 events were acquired. Dot plots were generated, the forward scatter (FSC-H) parameter was analyzed as presenting a correlation with the cell volume.
Scanning electron microscopy (SEM) also was performed to analyze morphological changes in cell surface topography. After 24 h of treatment, the parasites were centrifuged at 576 g for 10 min, and the samples were fixed in 2.5% glutaraldehyde and 0.1 M sodium cacodylate buffer. Poly-L-lysine was used to promote the adhesion of fixed parasites on coverslips. Promastigotes were dehydrated with increasing ethanol concentrations (30-100%), submitted to critical point drying, and metalized with gold for visualization on a Shimadzu 55-550 (Japan) microscope.

For experiment [3] the test system is unchanged. Kind of experiment: Viability assay of promastigotes, XTT colorimetric method (LD50). The class given is cell-based, Leishmania amazonensis (MHOM/BR/1977/LTB0016). To be noted: 25°C. The protocol: The viability of L. amazonensis (MHOM/BR/1977/LTB0016) promastigotes was evaluated using the XTT colorimetric method, which consists in the XTT salt degradation by the mitochondria forming formazan crystals. Promastigote forms (2×10^7 parasites/mL) from a culture in logarithmic growth phase were incubated with lapachol and β-lapachone diluted in 199 culture medium. The drugs were diluted in series, in a ratio of two, starting from 1/2, on a 96-well cell culture plate (TPP™ test plate, Switzerland). The compounds were tested at concentrations from 204.4 to 0.40 µg/mL (lapachol) and 157.5 to 0.31 µg/mL (β-lapachone). After 24, 48, and 72 h of incubation at 25°C, 100 μL of the XTT solution (500 μg/mL) activated with PMS (50 μg/mL) were added to each well and incubated for 4 h at 37°C. The result was measured by absorbance, determined by spectrophotometry (450/650 nm filter, VersaMax™ ELISA microplate reader, USA). The lethal dose (LD50) was defined as the concentrations of the compounds that reduced survival of L. amazonensis by 50% compared to untreated parasites in culture medium. AmB (1.96 to 0.25 µg/mL) was used as positive control of leishmanicidal activity. The therapeutic selectivity index (TSI CC50/LD50) was calculated by the ratio of toxicity to macrophage vs toxicity to parasites after 24 h incubation ([28]). All assays were performed in triplicate and repeated at least three times.
(In general: Tetrazolium assays rely on reduction of a dye to a coloured formazan, in cell work by metabolically active cells.)

For experiment [4] the test system is unchanged. Put plainly: Promastigote growth inhibition, counting in Neubauer chamber (IC50). In kind it is cell-based, Leishmania amazonensis (MHOM/BR/1977/LTB0016). To be noted: Leishmania amazonensis; 24 h incubation, growth inhibition by counting. As for the experimental part:
Leishmania growth was evaluated after 24 h of incubation at 25°C with the compounds under the same conditions as previously mentioned. Then, 10 µL of the content of each well was added to a 990 µL (1/100) of formalin solution (2%), and the parasites were counted in a Neubauer chamber. The inhibitory concentration (IC50) of promastigotes was calculated by comparing with untreated promastigotes in culture medium. The results were evaluated by linear regression of the inhibition percentage. The selectivity index (SI CC50/IC50) was calculated by the ratio of toxicity concentration to macrophage vs inhibitory concentration to the parasite growth after 24 h incubation ([27]). All assays were performed in triplicate and repeated at least three times.

≈ marks a conversion by molar mass, not a printed value.

Consider `OO` [H2O2, reference compound], for which the “Reduction in ΔΨm” value in experiment [1] (1 h) is 97%; in experiment [1] (24 h), 98%. Besides, the results for the “Variation Index (VI) of Rh123 fluorescence, (MT−MC)/MC” value in experiment [1] (1 h), in experiment [1] (4 h) and in experiment [1] (24 h) were -0.97, -0.98 and -0.98, respectively. Further, the “Percentage population of the lower left quadrant gate (FSC-H/SSC-H, cell volume)” value in experiment [2] came to 49.51%.

A word on the IC50: it is the concentration that inhibits the measured activity by half. Read a low IC50 as greater potency in that assay. Take `C[C@@H]1[C@H](O)[C@@H](C)/C=C/C=C/C=C/C=C/C=C/C=C/C=C/[C@H](O[C@@H]2O[C@H](C)[C@@H](O)[C@H](N)[C@@H]2O)C[C@@H]2O[C@](O)(C[C@@H](O)C[C@@H](O)[C@H](O)CC[C@@H](O)C[C@@H](O)CC(=O)O[C@H]1C)C[C@H](O)[C@H]2C(=O)O` [AmB, Amphotericin B, reference compound]: the “Promastigotes LD50” value in experiment [3] (24 h incubation) came out at 0.97 ± 0.09 µg/mL; in experiment [3] (48 h incubation), 1.65 ± 0.02 µg/mL; in experiment [3] (72 h incubation) it was 0.80 ± 0.03 µg/mL. Moreover, in experiment [4], the IC50 stood at 0.632 ± 0.12 µg/mL (≈ 0.684 µM).

Values taken from publication PMC10229078, “In vitro effects of lapachol and β-lapachone against Leishmania amazonensis” (Brazilian Journal of Medical and Biological Research, 2023).
